Measurements as given in ChEMBL document CHEMBL2169844, “6β-N-heterocyclic substituted naltrexamine derivative NAP as a potential lead to develop peripheral mu opioid receptor selective antagonists” (Bioorg Med Chem Lett, 2012).
Calls of active or inactive are those of the source. The calls are words filed in the database; no cut-off is given here.

Legend:
Mus musculus [1] = test: Increase in gastrointestinal motility in sc dosed morphine-pelleted mouse administered 20 mins before forced charcoal meal measured after 30 mins; format: functional
Mus musculus [2] = test: Increase in gastrointestinal motility in morphine-pelleted mouse at 1 mg/kg, sc administered 20 mins before forced charcoal meal measured after 30 mins; format: functional, organism-based; set-up: dose 1 mg/kg
Mus musculus [3] = test: Toxicity in mouse assessed as lower locomotory activity measured as walking at 32 mg/kg, iv followed by morphine at 32 mg/kg, sc; format: organism-based; details: in vivo
Mus musculus [4] = test: Increase in gastrointestinal motility in morphine-pelleted mouse assessed as decrease in stool weight at 0.3 to 3 mg/kg, sc administered 20 mins before forced charcoal meal measured after 30 mins; format: functional, organism-based
Mus musculus [5] = test: Increase in gastrointestinal motility in morphine-pelleted mouse assessed as decrease in stool weight at 0.3 to 1 mg/kg, sc administered 20 mins before forced charcoal meal measured after 30 mins; format: functional, organism-based
Mus musculus [6] = test: Ratio of ED50 for MNTX to compound ED50 for morphine-pelleted mouse administered 20 mins before forced charcoal meal measured after 30 mins; format: functional
Mus musculus [7] = test: Toxicity in mouse assessed as wet dog shakes at 50 mg/kg, iv followed by morphine at 32 mg/kg, sc; format: organism-based; details: in vivo
Mus musculus [8] = species: Mus musculus; test: Ratio of naloxone to compound for toxicity in mouse assessed as reduced wet dog shakes; format: organism-based; details: in vivo
Mus musculus [9] = species: Mus musculus; test: Ratio of naltrexone to compound for toxicity in mouse assessed as reduced wet dog shakes; format: organism-based; details: in vivo
Mus musculus [10] = test: Toxicity in mouse assessed as high locomotory activity measured as jumping up to 50 mg/kg, iv followed by morphine at 32 mg/kg, sc; format: organism-based; details: in vivo
Mus musculus [11] = test: Increase in gastrointestinal motility in morphine-naive mouse assessed as decrease in stool weight at 3 mg/kg, sc administered 20 mins before forced charcoal meal measured after 30 mins; format: functional, organism-based; set-up: dose 3 mg/kg
Mus musculus [12] = test: Toxicity in morphine-pelleted mouse assessed as diarrhea at 0.3 mg/kg, sc; format: organism-based; set-up: dose 0.3 mg/kg, route subcutaneous; details: in vivo
Mus musculus [13] = test: Increase in gastrointestinal motility in morphine-naive mouse assessed as decrease in stool weight at 0.3 mg/kg, sc administered 20 mins before forced charcoal meal measured after 30 mins; format: functional, organism-based; set-up: dose 0.3 mg/kg
Mus musculus [14] = species: Mus musculus; test: Ratio of ED50 for increase in gastrointestinal motility in morphine-pelleted mouse to ED50 for toxicity in mouse assessed as lower locomotory activity; format: functional
Mus musculus [15] = test: Increase in gastrointestinal motility in morphine-naive mouse assessed as decrease in stool weight at 30 mg/kg, sc administered 20 mins before forced charcoal meal measured after 30 mins; format: functional, organism-based; set-up: dose 30 mg/kg
Mus musculus [16] = test: Increase in gastrointestinal motility in morphine-pelleted mouse at 0.003 to 0.03 mg/kg, sc administered 20 mins before forced charcoal meal measured after 30 mins; format: functional, organism-based
Mus musculus [17] = test: Increase in gastrointestinal motility in morphine-pelleted mouse at 3 mg/kg, sc administered 20 mins before forced charcoal meal measured after 30 mins; format: functional, organism-based; set-up: dose 3 mg/kg
Mus musculus [18] = test: Increase in gastrointestinal motility in morphine-pelleted mouse assessed as increase in stool weight at 0.3 to 1 mg/kg, sc administered 20 mins before forced charcoal meal measured after 30 mins; format: functional, organism-based
[19] = molecular target: Mu-type opioid receptor (Rattus norvegicus) (UniProt P33535); test: Partial agonist activity at mu opioid receptor in rat thalamus assessed as stimulation of [35S]-GTP[gammaS]-binding relative to DAMGO; format: functional, tissue-based
Sequence of Mu-type opioid receptor (Rattus norvegicus) (P33535 whole entry): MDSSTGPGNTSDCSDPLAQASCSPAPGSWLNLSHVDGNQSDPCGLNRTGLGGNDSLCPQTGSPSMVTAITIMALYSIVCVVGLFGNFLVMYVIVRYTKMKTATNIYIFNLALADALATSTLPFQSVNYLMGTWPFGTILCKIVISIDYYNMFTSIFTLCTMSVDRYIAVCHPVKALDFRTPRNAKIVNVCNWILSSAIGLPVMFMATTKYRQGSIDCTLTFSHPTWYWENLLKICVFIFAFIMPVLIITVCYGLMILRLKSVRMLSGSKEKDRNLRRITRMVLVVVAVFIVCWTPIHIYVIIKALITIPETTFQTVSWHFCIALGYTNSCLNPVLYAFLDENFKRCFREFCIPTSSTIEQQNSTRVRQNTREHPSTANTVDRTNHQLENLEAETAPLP

Mus musculus [20] = test: Increase in gastrointestinal motility in morphine-pelleted mouse at 0.3 mg/kg, sc administered 20 mins before forced charcoal meal measured after 30 mins; format: functional, organism-based; set-up: dose 0.3 mg/kg

Row | SMILES | ED50 (Mus musculus [1]) | Activity (Mus musculus [2]) | Activity (Mus musculus [3]) | Activity (Mus musculus [4]) | Activity (Mus musculus [5]) | Ratio ED50 (Mus musculus [6]) | Activity (Mus musculus [7]) | Ratio (Mus musculus [8]) | Ratio (Mus musculus [9]) | Activity (Mus musculus [10]) | Activity (Mus musculus [11]) | Activity (Mus musculus [12]) | Activity (Mus musculus [13]) | Ratio ED50 (Mus musculus [14]) | Activity (Mus musculus [15]) | Activity (Mus musculus [16]) | Activity (Mus musculus [17]) | Activity (Mus musculus [18]) | Emax [19] | Activity (Mus musculus [20])
1 | C[N+]1(CC2CC2)CC[C@]23c4c5ccc(O)c4O[C@H]2C(=O)CC[C@@]3(O)[C@H]1C5 (stereo partly specified) [METHYLNALTREXONE] | 2.5 mg/kg | – | – | – | – | – | – | – | – | – | – | – | – | – | – | – | – | – | – | –
2 | O=C(N[C@@H]1CC[C@@]2(O)[C@H]3Cc4ccc(O)c5c4[C@@]2(CCN3CC2CC2)[C@H]1O5)c1ccncc1 | 0.0088 mg/kg | Active | Toxic | inactive | Active | 300 | Toxic | 50 | 50 | Toxic | Active | Toxic | inactive | >3600 | inactive | inactive | Active | inactive | 16.7% | Active
